Reference: US9334267B2, “RAF inhibitor compounds” (Deciphera Pharmaceuticals, LLC, priority 2012, dated 2016)

System: A375 V600E xenograft tumor
Experiment: A375 rat xenograft efficacy model
Assay type: in vivo, rats
Conditions: orally twice a day at 10 and 20 mg/kg for 21 days
Protocol: To further evaluate in vivo activity of compounds of Formula I, A375 V600E (ATCC) and HCT-116 K—Ras mutant B-Raf wild type (ATCC) xenograft tumor models are used. Briefly, 10×10^6 cells (A375) or 5×10^6 cells (HCT-116) in a 1:1 medium and matrigel mix (0.2 mL total volume) are implanted by subcutaneous injection in the hind leg of nude female rats (NIH model No. NIHRNU-M from Taconic). A total of 8 rats in each group are used for the efficacy study, and a total of 3-4 rats in each group are used for a pharmacodynamic study. Treatment is initiated with oral administration (gavage) of test compound or vehicle (20% Captisol®, 25 mM phosphate, pH 2.0) in 0.6 mL volume when tumor size reaches approximately 500 mg. Test compound is orally dosed twice a day for 21 days. Tumor growth and body weight are monitored over time to evaluate activity and signs of toxicity. Bidimensional measurements of tumors are performed twice a week and tumor volumes are calculated based on mid-axis length and mid-axis width. Tumor volume data are transformed to a log scale to equalize variance across time and treatment groups. The log volume data are analyzed with a two-way repeated measures analysis of variance by time and treatment using the MIXED® procedures in SAS® software (version 8.2). The correlation model for the repeated measures is spatial power. […]

Structure (SMILES): CNc1ncc2cc(-c3cc(NC(=O)NCCC4(C)CC4)c(F)cc3C)c(C)nc2n1 [Example 24, 1-(2-Fluoro-4-methyl-5-(7-methyl-2-(methylamino)pyrido[2,3-d]pyrimidin-6-yl)phenyl)-3-(2-(1-methylcyclopropyl)ethyl)urea]
- tumor growth (both dosing groups): tumor growth inhibition and tumor growth regression
- animal body weight (either group): no animal body weight loss
